Columns and labels:
Assay type in all cases: cell-based
GIPR = biological target: T1, GIPR (Homo sapiens, UniProt P48546); assay: GIP activity test (cAMP, chemiluminescence); details: CHO-K1 cell line stably expressing GIPR; relative luminescence units; read-out: GIP [EC50(pmol)]
T1 construct: expressed in transfected cells; host or cells: CHO-K1
T1 sequence (P48546 22-466): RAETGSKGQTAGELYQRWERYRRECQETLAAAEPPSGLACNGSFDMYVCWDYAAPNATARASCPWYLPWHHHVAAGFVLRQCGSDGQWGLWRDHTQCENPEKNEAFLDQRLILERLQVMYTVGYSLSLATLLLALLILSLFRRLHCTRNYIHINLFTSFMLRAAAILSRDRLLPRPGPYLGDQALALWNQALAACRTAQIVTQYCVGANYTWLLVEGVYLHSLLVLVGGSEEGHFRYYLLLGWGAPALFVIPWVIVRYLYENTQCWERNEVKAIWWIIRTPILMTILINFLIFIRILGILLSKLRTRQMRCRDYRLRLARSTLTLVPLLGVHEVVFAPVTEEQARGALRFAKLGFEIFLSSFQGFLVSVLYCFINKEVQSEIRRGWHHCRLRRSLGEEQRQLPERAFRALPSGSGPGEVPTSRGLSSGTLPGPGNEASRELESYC
Procedure: (§1) Upon stimulation by a specific agonist, GIPR activates the intracellular adenylate cyclase signaling pathway, resulting in an increase in cAMP levels and ultimately leading to insulin production and secretion. A cell line stably transfected with GIPR was stimulated with test compounds, thereby rapidly increasing intracellular cAMP levels. The relative luminescence units (RLU) of cells stimulated at various concentrations were measured by a chemiluminescence method, and the EC50 value of the agonist was calculated accordingly. This activity assay method is currently a commonly used method for evaluating GIP receptor agonist activity both domestically and internationally. A CHO-K1 cell line stably expressing GIPR was used. The stable cells were stimulated with agonists at different concentrations, and the relative luminescence units after stimulation at each concentration were measured to calculate the EC50 value of the agonist.

GLP-1R = biological target: T2, GLP-1R (Homo sapiens, UniProt P43220); assay: GLP-1 activity test (cAMP, chemiluminescence); details: CHO-K1 cell line stably expressing GLP-1R; relative luminescence units; read-out: GLP-1 [EC50(pmol)]
T2 construct: expressed in transfected cells; host or cells: CHO-K1
Procedure: as §1, with “GLP-1R” for “GIPR”, “test” for “assay”, “GLP-1” for “GIP”

GCG-R = biological target: T3, GCG-R (Homo sapiens, UniProt P47871); assay: GCG activity test (cAMP, chemiluminescence); details: CHO-K1 cell line stably expressing GCG-R; relative luminescence units; read-out: GCG [EC50(pmol)]
T3 construct: expressed in transfected cells; host or cells: CHO-K1
Procedure: as §1, with “GCG-R” for “GIPR”, “GCG” for “GIP”

T2 sequence (P43220 24-463, species assumed): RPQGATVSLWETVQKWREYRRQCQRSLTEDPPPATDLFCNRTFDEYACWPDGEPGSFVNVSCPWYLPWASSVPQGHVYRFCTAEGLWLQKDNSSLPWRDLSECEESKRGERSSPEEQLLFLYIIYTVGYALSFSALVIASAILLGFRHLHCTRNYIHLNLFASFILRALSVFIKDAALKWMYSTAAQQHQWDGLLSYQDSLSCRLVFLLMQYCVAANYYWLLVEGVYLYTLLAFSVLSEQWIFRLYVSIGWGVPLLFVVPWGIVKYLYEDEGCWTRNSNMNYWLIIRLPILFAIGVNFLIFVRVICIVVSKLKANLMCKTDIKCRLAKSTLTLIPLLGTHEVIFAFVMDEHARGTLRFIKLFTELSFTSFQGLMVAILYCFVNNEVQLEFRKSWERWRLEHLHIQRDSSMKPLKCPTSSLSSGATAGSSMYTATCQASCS
T3 sequence (P47871 26-477, species assumed): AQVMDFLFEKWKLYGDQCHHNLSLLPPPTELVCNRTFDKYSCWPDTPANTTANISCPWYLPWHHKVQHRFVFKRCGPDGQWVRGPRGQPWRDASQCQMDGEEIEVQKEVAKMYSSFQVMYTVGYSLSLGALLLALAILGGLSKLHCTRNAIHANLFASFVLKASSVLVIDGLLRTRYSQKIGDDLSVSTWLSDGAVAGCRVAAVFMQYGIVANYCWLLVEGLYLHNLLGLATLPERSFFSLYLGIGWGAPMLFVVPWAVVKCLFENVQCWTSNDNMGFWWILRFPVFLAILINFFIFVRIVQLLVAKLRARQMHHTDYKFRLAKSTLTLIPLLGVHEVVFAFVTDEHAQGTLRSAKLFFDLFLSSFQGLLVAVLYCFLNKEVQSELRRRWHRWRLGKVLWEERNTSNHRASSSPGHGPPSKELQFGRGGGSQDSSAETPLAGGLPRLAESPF

SMILES	EC50 (GIPR) [nM]	EC50 (GLP-1R) [nM]	EC50 (GCG-R) [nM]
CC[C@H](C)[C@H](NC(=O)[C@H](Cc1ccccc1)NC(=O)[C@H](C)NC(=O)C(C)(C)NC(=O)[C@H](CCC(N)=O)NC(=O)[C@H](C)NC(=O)[C@H](CCCCNC(=O)COCCOCCNC(=O)CC[C@H](NC(=O)CCCCCCCCCCCCCCCCCCC(=O)O)C(=O)O)NC(=O)[C@H](CCCCN)NC(=O)[C@H](CC(=O)O)NC(=O)[C@H](CC(C)C)NC(=O)C(C)(CC(C)C)NC(=O)[C@@H](NC(=O)[C@H](CO)NC(=O)[C@H](Cc1ccc(O)cc1)NC(=O)[C@H](CC(=O)O)NC(=O)[C@H](CO)NC(=O)[C@@H](NC(=O)C(C)(Cc1ccccc1)NC(=O)[C@@H](NC(=O)CNC(=O)[C@H](CCC(N)=O)NC(=O)C(C)(C)NC(=O)[C@@H](N)Cc1ccc(O)cc1)[C@@H](C)O)[C@@H](C)O)[C@@H](C)CC)C(=O)N[C@@H](CCC(=O)O)C(=O)N[C@@H](Cc1ccc(O)cc1)C(=O)N[C@@H](CC(C)C)C(=O)N[C@@H](CC(C)C)C(=O)N[C@@H](CCC(=O)O)C(=O)NCC(=O)NCC(=O)N1CCC[C@H]1C(=O)N[C@@H](CO)C(=O)N[C@@H](CO)C(=O)NCC(=O)N[C@@H](C)C(=O)N1CCC[C@H]1C(=O)N1CCC[C@H]1C(=O)N1CCC[C@H]1C(=O)N[C@@H](CO)C(N)=O (stereo partly drawn) [Compound 1]	0.0226	0.0502	0.171
CC[C@H](C)[C@H](NC(=O)[C@H](Cc1ccccc1)NC(=O)[C@H](C)NC(=O)C(C)(C)NC(=O)[C@H](CCC(N)=O)NC(=O)[C@H](C)NC(=O)[C@H](CCCCNC(=O)COCCOCCNC(=O)COCCOCCNC(=O)CC[C@H](NC(=O)CCCCCCCCCCCCCCCCCCC(=O)O)C(=O)O)NC(=O)[C@H](CCCCN)NC(=O)[C@H](CC(=O)O)NC(=O)[C@H](CC(C)C)NC(=O)C(C)(CC(C)C)NC(=O)[C@@H](NC(=O)[C@H](CO)NC(=O)[C@H](Cc1ccc(O)cc1)NC(=O)[C@H](CC(=O)O)NC(=O)[C@H](CO)NC(=O)[C@@H](NC(=O)C(C)(Cc1ccccc1)NC(=O)[C@@H](NC(=O)CNC(=O)[C@H](CCC(N)=O)NC(=O)C(C)(C)NC(=O)[C@@H](N)Cc1ccc(O)cc1)[C@@H](C)O)[C@@H](C)O)[C@@H](C)CC)C(=O)N[C@@H](CCC(=O)O)C(=O)N[C@@H](Cc1ccc(O)cc1)C(=O)N[C@@H](CC(C)C)C(=O)N[C@@H](CC(C)C)C(=O)N[C@@H](CCC(=O)O)C(=O)NCC(=O)NCC(=O)N1CCC[C@H]1C(=O)N[C@@H](CO)C(=O)N[C@@H](CO)C(=O)NCC(=O)N[C@@H](C)C(=O)N1CCC[C@H]1C(=O)N1CCC[C@H]1C(=O)N1CCC[C@H]1C(=O)N[C@@H](CO)C(N)=O (stereo partly drawn) [Compound 9]	0.0285	0.0612	0.186
CC[C@H](C)[C@H](NC(=O)[C@H](Cc1ccccc1)NC(=O)[C@H](C)NC(=O)C(C)(C)NC(=O)[C@H](CCC(N)=O)NC(=O)[C@H](C)NC(=O)[C@H](CCCCNC(=O)COCCOCCNC(=O)COCCOCCNC(=O)CC[C@H](NC(=O)CCCCCCCCCCCCCCCCCCC(=O)O)C(=O)O)NC(=O)[C@H](CCCCN)NC(=O)[C@H](CC(=O)O)NC(=O)[C@H](CC(C)C)NC(=O)C(C)(CC(C)C)NC(=O)[C@@H](NC(=O)[C@H](CO)NC(=O)[C@H](Cc1ccc(O)cc1)NC(=O)[C@H](CC(=O)O)NC(=O)[C@H](CO)NC(=O)[C@@H](NC(=O)C(C)(Cc1ccccc1F)NC(=O)[C@@H](NC(=O)CNC(=O)[C@H](CCC(N)=O)NC(=O)C(C)(C)NC(=O)[C@@H](N)Cc1ccc(O)cc1)[C@@H](C)O)[C@@H](C)O)[C@@H](C)CC)C(=O)N[C@@H](CCC(=O)O)C(=O)N[C@@H](Cc1ccc(O)cc1)C(=O)N[C@@H](CC(C)C)C(=O)N[C@@H](CC(C)C)C(=O)N[C@@H](CCC(=O)O)C(=O)NCC(=O)NCC(=O)N1CCC[C@H]1C(=O)N[C@@H](CO)C(=O)N[C@@H](CO)C(=O)NCC(=O)N[C@@H](C)C(=O)N1CCC[C@H]1C(=O)N1CCC[C@H]1C(=O)N1CCC[C@H]1C(=O)N[C@@H](CO)C(N)=O (stereo partly drawn) [Compound 11]	0.027	0.0536	0.166
CC[C@H](C)[C@H](NC(=O)[C@H](Cc1ccccc1)NC(=O)[C@H](C)NC(=O)C(C)(C)NC(=O)[C@H](CCC(N)=O)NC(=O)[C@H](C)NC(=O)[C@H](CCCCNC(=O)COCCOCCNC(=O)CC[C@H](NC(=O)CCCCCCCCCCCCCCCCCCC(=O)O)C(=O)O)NC(=O)[C@H](CCCCN)NC(=O)[C@H](CC(=O)O)NC(=O)[C@H](CC(C)C)NC(=O)[C@](C)(CC(C)C)NC(=O)[C@@H](NC(=O)[C@H](CO)NC(=O)[C@H](Cc1ccc(O)cc1)NC(=O)[C@H](CC(=O)O)NC(=O)[C@H](CO)NC(=O)[C@@H](NC(=O)[C@H](Cc1ccccc1)NC(=O)[C@@H](NC(=O)CNC(=O)[C@H](CCC(N)=O)NC(=O)C(C)(C)NC(=O)[C@@H](N)Cc1ccc(O)cc1)[C@@H](C)O)[C@@H](C)O)[C@@H](C)CC)C(=O)N[C@@H](CCC(=O)O)C(=O)N[C@@H](Cc1ccc(O)cc1)C(=O)N[C@@H](CC(C)C)C(=O)N[C@@H](CC(C)C)C(=O)N[C@@H](CCC(=O)O)C(=O)NCC(=O)NCC(=O)N1CCC[C@H]1C(=O)N[C@@H](CO)C(=O)N[C@@H](CO)C(=O)NCC(=O)N[C@@H](C)C(=O)N1CCC[C@H]1C(=O)N1CCC[C@H]1C(=O)N1CCC[C@H]1C(=O)N[C@@H](CO)C(N)=O [retatrutide, Retatrutide, reference compound]	0.0342	0.046	0.523
CC[C@H](C)[C@H](NC(=O)[C@H](Cc1ccccc1)NC(=O)[C@H](C)NC(=O)C(C)(C)NC(=O)[C@H](CCC(N)=O)NC(=O)[C@H](C)NC(=O)[C@H](CCCCNC(=O)COCCOCCNC(=O)CC[C@H](NC(=O)CCCCCCCCCCCCCCCCCCC(=O)O)C(=O)O)NC(=O)[C@H](CCCCN)NC(=O)[C@H](CC(=O)O)NC(=O)[C@H](CC(C)C)NC(=O)C(C)(CC(C)C)NC(=O)[C@@H](NC(=O)[C@H](CO)NC(=O)[C@H](Cc1ccc(O)cc1)NC(=O)[C@H](CC(=O)O)NC(=O)[C@H](CO)NC(=O)[C@@H](NC(=O)C(C)(Cc1ccccc1F)NC(=O)[C@@H](NC(=O)CNC(=O)[C@H](CCC(N)=O)NC(=O)C(C)(C)NC(=O)[C@@H](N)Cc1ccc(O)cc1)[C@@H](C)O)[C@@H](C)O)[C@@H](C)CC)C(=O)N[C@@H](CCC(=O)O)C(=O)N[C@@H](Cc1ccc(O)cc1)C(=O)N[C@@H](CC(C)C)C(=O)N[C@@H](CC(C)C)C(=O)N[C@@H](CCC(=O)O)C(=O)NCC(=O)NCC(=O)N1CCC[C@H]1C(=O)N[C@@H](CO)C(=O)N[C@@H](CO)C(=O)NCC(=O)N[C@@H](C)C(=O)N1CCC[C@H]1C(=O)N1CCC[C@H]1C(=O)N1CCC[C@H]1C(=O)N[C@@H](CO)C(N)=O (stereo partly drawn) [Compound 5]	0.0205	0.0454	0.138
